This note sets out measurements from patent publication US11072581B2, “N-acyl-arylsulfonamide derivatives as aminoacyl-tRNA synthetase inhibitors” (Oxford Drug Design Limited, priority 2015, dated 2021).

Each structure is given as a SMILES string. Structures can show the parent of a compound that is named as a salt.

Data set [1] deals with T1, EcoLRS (leucyl-tRNA synthetase from Escherichia coli) (Escherichia coli, UniProt P07813).
T1 construct: made in house; host or cells: Escherichia coli M15
As to the kind of experiment: aaRS aminoacylation assay (ATP consumption), EcoLRS. It is filed as biochemical. Conditions: for % at single point concentration (inhibition ratio), EcoLRS: @50 μM compound. The procedure: (§1) The compounds have been tested for antibacterial activity in vitro as aminoacyl-tRNA synthetases (aaRS) inhibitors following the following process.
(§2) Leucyl-, valyl- and isoleucyl-tRNA synthetases (LRS, VRS and IRS, respectively) from Escherichia coli (Eco) and Staphylococcus aureus (Sau).
(§3) Escherichia coli M15 cells transformed with plasmid pQE-60, or pQE-70, containing the open-reading frame sequence of one targeted aaRS were induced with 1 mM IPTG (Isopropyl β-D-1-thiogalactopyranoside) for 3 h at 37° C. Bacterial cells were harvested and lysed with 20 mM NaH2PO4 (pH 8.0), 200 mM NaCl, 10 mM imidazole and protease inhibitor cocktail (Roche). Pathogenic aaRS was purified by nickel affinity standard chromatography. Protein concentration was determined by spectrophotometry.
(§4) tRNA^Leu, tRNA^Val and tRNA^Ile from E. coli and S. aureus were transcribed in vitro for 4 h at 37° C. using T7 RNA polymerase. Transcription reaction contained 40 mM Tris-HCl (pH 8.0), 22 mM MgCl2, 1 mM spermidine, 5 mM DTT, 0.01% Triton X-100, 4 mM GTP, 4 mM ATP, 4 mM UTP, 4 mM CTP, 16 mM GMP, […] T7 RNA polymerase and 150 μg BstNI digested plasmid. Once finished, the reaction was applied on a 6% polyacrylamide-8 M urea denaturing gel to purify the transcribed tRNA and discard any impurities. Purified tRNA was quantified with Nanodrop 2000 (Thermo Scientific).
(§5) The aminoacylation reaction catalyzed by aminoacyl-tRNA synthetases (aaRS) takes place in two steps. In the first step, aaRS activates its cognate amino acid with ATP; and in the second step the activated amino acid is loaded to its corresponding tRNA. This reaction can be summarized as follows: ARS+aa+ATP=ARS-aa-AMP+PPi ARS-aa-AMP+tRNA=aa-tRNA+AMP+ARS [2] (ARS, Aminoacyl-tRNA synthetase; aa, amino acid; ARS-aa-AMP, enzyme-bound to aminoacyl-adenylate; aa-tRNA, aminoacyl-tRNA).
(§6) The activity of the pathogenic aaRSs was monitored by measuring the ATP consumption rate, since this consumption is directly proportional to the activity of the aaRS. If the tested compound, at a single point concentration of 50 μM, is inhibiting the aminoacylation reaction, there is a decrease in the ATP consumption, compared to the control reaction without compound, allowing the calculation of an inhibition ratio.
(§7) When the inhibition ratio for a given compound was above 80%, IC50 determination was performed with the same enzymatic assay (using the commercial kit Kinase RR from BioThema AB, Sweden) in the presence of serial dilutions of inhibitor. Known inhibitors of LRS, VRS or IRS were used as a positive control of the assay. The IC50 was calculated based on nonlinear regression analysis.

Data set [2] deals with T2, EcoIRS (isoleucyl-tRNA synthetase from Escherichia coli) (Escherichia coli, UniProt P00956).
T2 construct: made in house; host or cells: Escherichia coli M15
As to the kind of experiment: aaRS aminoacylation assay (ATP consumption), EcoIRS. It is filed as biochemical. Conditions: i.a. = inactive at a concentration below 50 uM. The procedure: as §1, §2, §3, §4, §5, §6, §7

Data set [3] has as its target T3, EcoVRS (valyl-tRNA synthetase from Escherichia coli) (Escherichia coli, UniProt P07118).
T3 construct: made in house; host or cells: Escherichia coli M15
As to the kind of experiment: aaRS aminoacylation assay (ATP consumption), EcoVRS. Format: biochemical. The note with it: i.a. = inactive at a concentration below 50 uM. The procedure: as §1, §2, §3, §4, §5, §6, §7

In data set [4] the target is T4, SauLRS (leucyl-tRNA synthetase from Staphylococcus aureus) (Staphylococcus aureus, UniProt Q2FXH2).
T4 construct: made in house; host or cells: Escherichia coli M15
T4 sequence (Q2FXH2 1-805): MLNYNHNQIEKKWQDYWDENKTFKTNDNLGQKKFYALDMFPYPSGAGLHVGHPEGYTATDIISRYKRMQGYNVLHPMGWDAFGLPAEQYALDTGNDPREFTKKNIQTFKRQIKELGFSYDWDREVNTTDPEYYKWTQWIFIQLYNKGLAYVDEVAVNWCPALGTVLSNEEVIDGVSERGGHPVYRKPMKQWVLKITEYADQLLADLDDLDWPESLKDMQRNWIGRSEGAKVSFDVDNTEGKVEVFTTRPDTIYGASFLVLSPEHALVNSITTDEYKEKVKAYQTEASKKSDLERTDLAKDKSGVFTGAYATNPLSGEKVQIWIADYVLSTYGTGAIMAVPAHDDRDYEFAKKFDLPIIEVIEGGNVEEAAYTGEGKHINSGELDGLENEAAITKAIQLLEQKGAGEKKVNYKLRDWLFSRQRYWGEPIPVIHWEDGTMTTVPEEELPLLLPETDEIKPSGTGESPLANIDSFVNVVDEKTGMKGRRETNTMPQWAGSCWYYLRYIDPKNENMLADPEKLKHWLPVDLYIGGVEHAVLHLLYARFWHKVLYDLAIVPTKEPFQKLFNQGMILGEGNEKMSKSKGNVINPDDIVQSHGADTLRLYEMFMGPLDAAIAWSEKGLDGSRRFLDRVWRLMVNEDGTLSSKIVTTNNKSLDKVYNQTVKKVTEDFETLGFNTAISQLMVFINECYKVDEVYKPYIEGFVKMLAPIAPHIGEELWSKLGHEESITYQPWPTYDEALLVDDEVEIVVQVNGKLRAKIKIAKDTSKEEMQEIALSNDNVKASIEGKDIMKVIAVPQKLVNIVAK
As to the kind of experiment: aaRS aminoacylation assay (ATP consumption), SauLRS. Format: biochemical. The note with it: i.a. = inactive at a concentration below 50 uM. The procedure:
as §1, §2, §3, §4, §5, §6, §7

Data set [5] concerns the target T5, SauVRS (valyl-tRNA synthetase from Staphylococcus aureus) (Staphylococcus aureus, UniProt Q2FXR8).
T5 construct: made in house; host or cells: Escherichia coli M15
T5 sequence (Q2FXR8 1-876): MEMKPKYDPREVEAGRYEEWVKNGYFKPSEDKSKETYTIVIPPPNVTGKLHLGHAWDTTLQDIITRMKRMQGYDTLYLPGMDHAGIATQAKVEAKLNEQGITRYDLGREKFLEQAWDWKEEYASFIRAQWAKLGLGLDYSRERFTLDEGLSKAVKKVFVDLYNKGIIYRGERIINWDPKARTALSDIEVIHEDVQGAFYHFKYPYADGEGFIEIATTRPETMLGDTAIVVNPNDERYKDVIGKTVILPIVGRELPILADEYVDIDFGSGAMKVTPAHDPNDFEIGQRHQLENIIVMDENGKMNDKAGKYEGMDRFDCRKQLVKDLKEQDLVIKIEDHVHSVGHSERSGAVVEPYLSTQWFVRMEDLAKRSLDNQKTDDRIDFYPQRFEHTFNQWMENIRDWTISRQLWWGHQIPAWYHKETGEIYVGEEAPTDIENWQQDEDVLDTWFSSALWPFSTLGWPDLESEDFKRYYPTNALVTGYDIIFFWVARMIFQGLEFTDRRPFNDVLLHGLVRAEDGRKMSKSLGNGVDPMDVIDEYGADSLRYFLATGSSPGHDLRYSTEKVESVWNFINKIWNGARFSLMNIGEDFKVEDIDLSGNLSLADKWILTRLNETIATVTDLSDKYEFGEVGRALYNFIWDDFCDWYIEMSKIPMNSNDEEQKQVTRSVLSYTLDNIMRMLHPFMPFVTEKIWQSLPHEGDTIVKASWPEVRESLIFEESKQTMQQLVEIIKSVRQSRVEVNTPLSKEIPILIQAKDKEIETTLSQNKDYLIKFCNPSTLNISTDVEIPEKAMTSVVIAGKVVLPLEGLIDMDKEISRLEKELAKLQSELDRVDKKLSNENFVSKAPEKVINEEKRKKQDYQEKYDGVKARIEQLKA
As to the kind of experiment: aaRS aminoacylation assay (ATP consumption), SauVRS. Conditions: i.a. = inactive at a concentration below 50 uM. Format: biochemical. The procedure: as §1, §2, §3, §4, §5, §6, §7

T1 sequence (P07813 whole entry): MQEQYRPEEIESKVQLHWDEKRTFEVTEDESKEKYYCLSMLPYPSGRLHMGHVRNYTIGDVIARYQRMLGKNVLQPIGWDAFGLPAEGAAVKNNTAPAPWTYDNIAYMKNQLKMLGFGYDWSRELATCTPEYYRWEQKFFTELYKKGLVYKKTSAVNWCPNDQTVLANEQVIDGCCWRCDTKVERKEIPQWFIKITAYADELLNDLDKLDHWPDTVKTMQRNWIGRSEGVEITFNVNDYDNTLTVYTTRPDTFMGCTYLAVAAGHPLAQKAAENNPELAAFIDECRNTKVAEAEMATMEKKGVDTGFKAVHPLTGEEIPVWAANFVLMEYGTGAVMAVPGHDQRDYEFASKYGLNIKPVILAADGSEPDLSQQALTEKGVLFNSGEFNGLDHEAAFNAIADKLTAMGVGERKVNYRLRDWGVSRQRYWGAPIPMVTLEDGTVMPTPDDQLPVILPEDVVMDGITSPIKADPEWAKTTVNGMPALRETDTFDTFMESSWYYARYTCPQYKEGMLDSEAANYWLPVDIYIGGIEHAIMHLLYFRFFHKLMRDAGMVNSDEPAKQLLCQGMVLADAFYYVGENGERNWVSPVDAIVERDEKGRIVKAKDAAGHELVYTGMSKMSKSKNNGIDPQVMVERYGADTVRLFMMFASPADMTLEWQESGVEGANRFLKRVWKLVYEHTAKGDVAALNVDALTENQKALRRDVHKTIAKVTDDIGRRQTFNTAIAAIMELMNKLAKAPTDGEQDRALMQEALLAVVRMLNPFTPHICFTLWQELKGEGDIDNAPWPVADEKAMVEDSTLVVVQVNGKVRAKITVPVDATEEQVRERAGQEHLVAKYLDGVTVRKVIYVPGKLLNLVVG
T2 sequence (P00956 whole entry): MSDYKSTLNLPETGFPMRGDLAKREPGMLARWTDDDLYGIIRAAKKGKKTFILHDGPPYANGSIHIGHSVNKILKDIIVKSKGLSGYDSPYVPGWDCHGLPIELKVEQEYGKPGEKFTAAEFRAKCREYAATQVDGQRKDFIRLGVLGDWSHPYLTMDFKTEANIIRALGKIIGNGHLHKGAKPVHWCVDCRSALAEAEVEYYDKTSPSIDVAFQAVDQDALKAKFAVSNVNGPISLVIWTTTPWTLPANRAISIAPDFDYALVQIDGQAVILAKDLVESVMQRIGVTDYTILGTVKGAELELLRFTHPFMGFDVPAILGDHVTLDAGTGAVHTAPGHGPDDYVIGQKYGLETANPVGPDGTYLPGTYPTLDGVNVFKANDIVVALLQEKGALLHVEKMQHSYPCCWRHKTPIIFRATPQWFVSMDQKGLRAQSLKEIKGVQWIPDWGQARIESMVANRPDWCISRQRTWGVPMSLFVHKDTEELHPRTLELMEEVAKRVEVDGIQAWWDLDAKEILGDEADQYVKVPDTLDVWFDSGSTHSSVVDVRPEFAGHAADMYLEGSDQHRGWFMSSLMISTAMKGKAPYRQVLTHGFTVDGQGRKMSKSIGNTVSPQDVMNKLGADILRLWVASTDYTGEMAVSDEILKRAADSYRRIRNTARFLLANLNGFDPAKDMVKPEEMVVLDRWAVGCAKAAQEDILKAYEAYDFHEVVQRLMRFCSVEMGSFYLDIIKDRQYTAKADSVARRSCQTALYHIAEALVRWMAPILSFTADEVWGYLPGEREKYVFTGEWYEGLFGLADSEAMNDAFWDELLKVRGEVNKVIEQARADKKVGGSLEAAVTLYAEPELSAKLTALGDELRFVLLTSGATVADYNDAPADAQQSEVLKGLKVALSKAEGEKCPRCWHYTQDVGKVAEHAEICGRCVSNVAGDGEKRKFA
T3 sequence (P07118 whole entry): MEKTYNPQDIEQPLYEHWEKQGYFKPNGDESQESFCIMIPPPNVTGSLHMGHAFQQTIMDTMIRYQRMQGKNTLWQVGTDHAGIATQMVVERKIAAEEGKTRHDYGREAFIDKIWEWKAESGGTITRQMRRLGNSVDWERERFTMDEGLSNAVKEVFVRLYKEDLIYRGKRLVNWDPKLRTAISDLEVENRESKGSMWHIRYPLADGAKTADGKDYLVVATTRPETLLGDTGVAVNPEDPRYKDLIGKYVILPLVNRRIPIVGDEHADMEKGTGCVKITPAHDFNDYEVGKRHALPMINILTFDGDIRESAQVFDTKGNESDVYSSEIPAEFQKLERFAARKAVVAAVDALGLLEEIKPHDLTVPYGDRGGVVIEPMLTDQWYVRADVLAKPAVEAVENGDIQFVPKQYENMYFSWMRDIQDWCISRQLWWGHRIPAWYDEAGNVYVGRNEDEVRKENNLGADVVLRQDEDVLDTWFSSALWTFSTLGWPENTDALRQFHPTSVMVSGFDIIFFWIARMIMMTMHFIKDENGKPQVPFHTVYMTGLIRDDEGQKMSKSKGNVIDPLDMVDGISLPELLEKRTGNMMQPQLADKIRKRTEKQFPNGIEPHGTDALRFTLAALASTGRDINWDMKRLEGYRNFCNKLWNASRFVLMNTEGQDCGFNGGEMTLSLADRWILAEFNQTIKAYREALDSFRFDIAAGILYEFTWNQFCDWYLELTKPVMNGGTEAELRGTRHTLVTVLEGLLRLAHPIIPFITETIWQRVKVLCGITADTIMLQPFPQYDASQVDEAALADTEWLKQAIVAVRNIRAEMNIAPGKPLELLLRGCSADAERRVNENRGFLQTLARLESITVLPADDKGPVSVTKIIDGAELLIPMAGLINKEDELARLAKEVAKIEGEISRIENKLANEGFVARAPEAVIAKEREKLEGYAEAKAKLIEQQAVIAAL

For the compound `CC(C)C[C@H](N)C(=O)NS(=O)(=O)c1cccc2cc(C(N)=O)ncc12` (as salt: salt) [Compound 5.24, 8-(N-(L-Leucyl)sulfamoyl)isoquinoline-3-carboxamide], the melting point was 222.9 °C.

With `CC(C)C[C@H](N)C(=O)NS(=O)(=O)c1ccc(F)cc1` [Compound 5.8], the melting point lay in the range of 235 to 236 °C.

The compound `CC(C)C[C@H](N)C(=O)NS(=O)(=O)c1ccc(O)c2ccccc12` [Compound 5.23] gave a melting point of 250 to 252 °C.

For the compound `CC(C)C[C@H](N)C(=O)NS(=O)(=O)c1cccc(-c2cc(Oc3ccccc3)nc(N)n2)c1` [Compound 5.52], the “% at single point concentration (inhibition ratio), EcoLRS” value in data set [1] was determined as 104%@50 μM.

`CC(C)C[C@H](N)C(=O)NS(=O)(=O)c1cccc2c1CNCC2` (as salt: trifluoroacetate) [Compound 5.26, (S)-2-amino-4-methyl-N-((1,2,3,4-tetrahydroisoquinolin-8-yl)sulfonyl) pentanamide trifluoroacetate] had a melting point of 90 to 92 °C.

Turning to `CC(C)C[C@H](N)C(=O)NS(=O)(=O)c1ccc(Br)c2ccncc12` (as salt: trifluoroacetate) [Compound 5.22], the melting point was 137 to 139 °C.

As to `CC(C)C[C@H](N)C(=O)NS(=O)(=O)c1ccccn1` [Compound 5.20], the melting point is 203 to 205 °C.

Consider `COc1ccc(S(=O)(=O)NC(=O)[C@@H](N)CC(C)C)c2ccccc12` [Compound 5.18], for which the melting point is 253 to 255 °C.

With `CC(C)C[C@H](N)C(=O)NS(=O)(=O)c1cccc(-c2cc(OC(C)C)nc(N)n2)c1` [Compound 5.51], the “% at single point concentration (inhibition ratio), EcoLRS” value in data set [1] was found to be 102%@50 μM.

Consider `Cc1cc(-c2cccc(S(=O)(=O)NC(=O)[C@@H](N)C3CCCCC3)c2)nc(N)n1` [Compound 5.32], for which the IC50 in data set [1] turned out to be 38 µM. Also, the “IC50 EcoIRS” value in data set [2] is reported as “i.a”. Moreover, the “IC50 EcoVRS” value in data set [3] is reported as “i.a”. The “IC50 SauLRS” value in data set [4] is on record as “i.a”. Besides, the “IC50 SauVRS” value in data set [5] is reported as “i.a”.

`CC(C)C[C@H](N)C(=O)NS(=O)(=O)c1cccc2c(N(C)C)cccc12` (as salt: hydrochloride) [Compound 5.16, (S)-2-amino-N-((5-(dimethylamino)naphthalen-1-yl)sulfonyl)-4-methylpentanamide hydrochloride]: the melting point fell in the range of 178 to 180 °C.

By melting point is commonly meant the temperature of the solid-liquid transition. One may read the IC50 as the midpoint of a concentration-inhibition curve. Low readings indicate inhibition by little substance, high ones a need for much substance.
